Assay results from patent publication US12281095B2, “Pesticidally active diazine-amide compounds” (SYNGENTA CROP PROTECTION AG, priority 2019, dated 2025).

Assays:
Type in all cases: in vivo
[1] = system: Diabrotica balteata (Corn Root Worm); test: Example B1: Diabrotica balteata (Corn Root Worm), sprayed maize sprouts; conditions: 96 h, application rate of 200 ppm, L2 larvae, 4 days after infestation, read-out: control in at least one of the two categories (mortality or growth inhibition)
Description: Example B1: Diabrotica balteata (Corn Root Worm)
Maize sprouts placed onto an agar layer in 24-well microtiter plates were treated with aqueous test solutions prepared from 10′000 ppm DMSO stock solutions by spraying. After drying, the plates were infested with L2 larvae (6 to 10 per well). The samples were assessed for mortality and growth inhibition in comparison to untreated samples 4 days after infestation.

[2] = system: Chilo suppressalis (Striped Rice Stemborer); test: Example B4: Chilo suppressalis (Striped Rice Stemborer), artificial diet; conditions: 144 h, application rate of 200 ppm, L2 larvae, 6 days after infestation, read-out: control in at least one of the three categories (mortality, anti-feedant or growth inhibition)
Description: Example B4: Chilo suppressalis (Striped Rice Stemborer)
24-well microtiter plates with artificial diet were treated with aqueous test solutions prepared from 10′000 ppm DMSO stock solutions by pipetting. After drying, the plates were infested with L2 larvae (6-8 per well). The samples were assessed for mortality, anti-feeding effect, and growth inhibition in comparison to untreated samples 6 days after infestation. Control of Chilo suppressalis by a test sample is given when at least one of the categories mortality, anti-feedant effect, and growth inhibition is higher than the untreated sample.

[3] = system: Plutella xylostella (Diamond Back Moth); test: Example B5: Plutella xylostella (Diamond Back Moth), artificial diet, 24-well; conditions: 192 h, application rate of 200 ppm, eggs, 8 days after infestation, read-out: control in at least one of the two categories (mortality or growth inhibition)
Description: Example B5: Plutella xylostella (Diamond Back Moth)
24-well microtiter plates with artificial diet were treated with aqueous test solutions prepared from 10′000 ppm DMSO stock solutions by pipetting. After drying, Plutella eggs were pipetted through a plastic stencil onto a gel blotting paper and the plate was closed with it. The samples were assessed for mortality and growth inhibition in comparison to untreated samples 8 days after infestation.

[4] = system: Myzus persicae (Green Peach Aphid); test: Example B8: Myzus persicae (Green Peach Aphid): Intrinsic Activity; conditions: 120 h, test rate of 12 ppm, sucrose solution, 5 days after infestation
Excerpt: Example B8: Myzus persicae (Green Peach Aphid): Intrinsic Activity
Test compounds prepared from 10′000 ppm DMSO stock solutions were applied by pipette into 24-well microtiter plates and mixed with sucrose solution. The plates were closed with a stretched Parafilm. A plastic stencil with 24 holes was placed onto the plate and infested pea seedlings were placed directly on the Parafilm. The infested plate was closed with a gel blotting paper and another plastic stencil and then turned upside down. The samples were assessed for mortality 5 days after infestation.

[5] = system: Spodoptera littoralis (Egyptian Cotton Leaf Worm); test: Example B9: Spodoptera littoralis (Egyptian Cotton Leaf Worm), sprayed cotton leaf discs; conditions: foliar, 72 h, application rate of 200 ppm, L1 larvae, 3 days after infestation, read-out: control in at least one of the three categories (mortality, anti-feedant or growth inhibition)
[6] = system: Euschistus heros (Neotropical Brown Stink Bug); test: Example B2: Euschistus heros (Neotropical Brown Stink Bug), sprayed soybean leaves; conditions: 120 h, application rate of 200 ppm, N2 nymphs, 5 days after infestation, read-out: control in at least one of the two categories (mortality or growth inhibition)
Description: Example B2: Euschistus heros (Neotropical Brown Stink Bug)
Soybean leaves on agar in 24-well microtiter plates were sprayed with aqueous test solutions prepared from 10′000 ppm DMSO stock solutions. After drying the leaves were infested with N2 nymphs. The samples were assessed for mortality and growth inhibition in comparison to untreated samples 5 days after infestation.

[7] = system: Plutella xylostella (Diamondback Moth); test: Example B13: Plutella xylostella (Diamondback Moth), artificial diet, 96-well; conditions: 216 h, application rate of 500 ppm, eggs/L1 larvae, 9 days after infestation
Description: Example B13: Plutella xylostella (Diamondback Moth)
96-well microtiter plates containing artificial diet were treated with aqueous test solutions, prepared from 10′000 ppm DMSO stock solutions, by a liquid handling robot. After drying, eggs (˜30 per well) were infested onto a netted lid which was suspended above the diet. The eggs hatch and L1 larvae move down to the diet. The samples were assessed for mortality 9 days after infestation.

[8] = system: Myzus persicae (Green Peach Aphid); test: Example B12: Myzus persicae (Green Peach Aphid), 96-well sucrose solution; conditions: 120 h, application rate of 50 ppm, 5 days after infestation
Excerpt: Example B12: Myzus persicae (Green Peach Aphid)
Test compounds prepared from 10′000 ppm DMSO stock solutions were applied by a liquid handling robot into 96-well microtiter plates and mixed with a sucrose solution. Parafilm was stretched over the 96-well microtiter plate and a plastic stencil with 96 holes was placed onto the plate. Aphids were sieved into the wells directly onto the Parafilm. The infested plates were closed with a gel blotting card and a second plastic stencil and then turned upside down. The samples were assessed for mortality 5 days after infestation.

CC(NC(=O)c1cc(C(F)(F)F)cc(C(C)(C)C#N)c1)c1nccnc1-c1ccc(C#N)cn1 (centres unmarked) [P9, 3-(1-cyano-1-methyl-ethyl)-N-[1-[3-(5-cyano-2-pyridyl)pyrazin-2-yl]ethyl]-5-(trifluoromethyl)benzamide]
≥ 80%: percent control (mortality or growth inhibition) at 200 ppm [1] | percent control (mortality, anti-feedant effect or growth inhibition) at 200 ppm [2] | percent control (mortality or growth inhibition) at 200 ppm [3] | mortality at 12 ppm [4] | percent control (mortality, anti-feedant effect or growth inhibition) at 200 ppm [5]

CC(NC(=O)c1cc(C(F)(F)F)cc(C2(C#N)CC2)c1)c1nccnc1-c1ncc(OCC(F)(F)F)cn1 (centres unmarked) [P2, 3-(1-cyanocyclopropyl)-N-[1-[3-[5-(2,2,2-trifluoroethoxy)pyrimidin-2-yl]pyrazin-2-yl]ethyl]-5-(trifluoromethyl)benzamide]
≥ 80%: percent control (mortality or growth inhibition) at 200 ppm [1] | percent control (mortality or growth inhibition) at 200 ppm [6] | percent control (mortality, anti-feedant effect or growth inhibition) at 200 ppm [2] | percent control (mortality or growth inhibition) at 200 ppm [3] | mortality at 12 ppm [4] | percent control (mortality, anti-feedant effect or growth inhibition) at 200 ppm [5]

CC(NC(=O)c1cc(C(F)(F)F)cc(C(C)(C)C#N)c1)c1nccnc1-c1ncc(OCC(F)(F)F)cn1 (centres unmarked) [P47, 3-(1-cyano-1-methyl-ethyl)-N-[1-[3-[5-(2,2,2-trifluoroethoxy)pyrimidin-2-yl]pyrazin-2-yl]ethyl]-5-(trifluoromethyl)benzamide]
≥ 80%: percent control (mortality or growth inhibition) at 200 ppm [1] | percent control (mortality or growth inhibition) at 200 ppm [6] | percent control (mortality, anti-feedant effect or growth inhibition) at 200 ppm [2] | percent control (mortality or growth inhibition) at 200 ppm [3] | mortality at 12 ppm [4] | percent control (mortality, anti-feedant effect or growth inhibition) at 200 ppm [5]

CC(NC(=O)c1cc(C2CC2)cc(C(F)(F)F)c1)c1nccnc1-c1ncc(OCC(F)F)cn1 (centres unmarked) [P37, 3-cyclopropyl-N-[1-[3-[5-(2,2-difluoroethoxy)pyrimidin-2-yl]pyrazin-2-yl]ethyl]-5-(trifluoromethyl)benzamide]
≥ 80%: percent control (mortality or growth inhibition) at 200 ppm [1] | percent control (mortality, anti-feedant effect or growth inhibition) at 200 ppm [2] | percent control (mortality or growth inhibition) at 200 ppm [3] | mortality at 12 ppm [4] | percent control (mortality, anti-feedant effect or growth inhibition) at 200 ppm [5] | mortality at 500 ppm [7]

CC(NC(=O)c1cc(C(F)(F)F)nc(C2(C#N)CC2)c1)c1nccnc1-c1ccc(OCC(F)(F)F)cn1 (centres unmarked) [P23, 2-(1-cyanocyclopropyl)-N-[1-[3-[5-(2,2,2-trifluoroethoxy)-2-pyridyl]pyrazin-2-yl]ethyl]-6-(trifluoromethyl)pyridine-4-carboxamide]
≥ 80%: percent control (mortality or growth inhibition) at 200 ppm [1] | percent control (mortality, anti-feedant effect or growth inhibition) at 200 ppm [2] | percent control (mortality or growth inhibition) at 200 ppm [3] | percent control (mortality, anti-feedant effect or growth inhibition) at 200 ppm [5] | mortality at 500 ppm [7]

CC(NC(=O)c1cc(C(F)(F)F)cc(C2(C#N)CC2)c1)c1nccnc1-c1ccc(OCC(F)F)cn1 (centres unmarked) [P33, 3-(1-cyanocyclopropyl)-N-[1-[3-[5-(2,2-difluoroethoxy)-2-pyridyl]pyrazin-2-yl]ethyl]-5-(trifluoromethyl)benzamide]
≥ 80%: percent control (mortality or growth inhibition) at 200 ppm [1] | percent control (mortality, anti-feedant effect or growth inhibition) at 200 ppm [2] | percent control (mortality or growth inhibition) at 200 ppm [3] | percent control (mortality, anti-feedant effect or growth inhibition) at 200 ppm [5] | mortality at 500 ppm [7]

CC(NC(=O)c1cc(C(F)(F)F)cc(C2(C#N)CC2)c1)c1nccnc1-c1ccc(C#N)cn1 (centres unmarked) [P25, 3-(1-cyanocyclopropyl)-N-[1-[3-(5-cyano-2-pyridyl)pyrazin-2-yl]eth-yl]-5-(trifluoromethyl)benzamide]
≥ 80%: percent control (mortality or growth inhibition) at 200 ppm [1] | percent control (mortality, anti-feedant effect or growth inhibition) at 200 ppm [2] | percent control (mortality or growth inhibition) at 200 ppm [3] | percent control (mortality, anti-feedant effect or growth inhibition) at 200 ppm [5] | mortality at 50 ppm [8] | mortality at 500 ppm [7]

CC(NC(=O)c1cc(C(F)(F)F)cc(C(F)(F)C2CC2)c1)c1nccnc1-c1ncc(OC(F)F)cn1 (centres unmarked) [P29, 3-[cyclopropyl(difluoro)methyl]-N-[1-[3-[5-(difluoromethoxy)pyrimidin-2-yl]pyrazin-2-yl]ethyl]-5-(trifluoromethyl)benzamide]
≥ 80%: percent control (mortality or growth inhibition) at 200 ppm [1] | percent control (mortality or growth inhibition) at 200 ppm [6] | percent control (mortality, anti-feedant effect or growth inhibition) at 200 ppm [2] | percent control (mortality or growth inhibition) at 200 ppm [3] | percent control (mortality, anti-feedant effect or growth inhibition) at 200 ppm [5] | mortality at 500 ppm [7]

CC(NC(=O)c1cc(C(F)(F)F)cc(S(=O)(=O)C(F)(F)F)c1)c1nccnc1-c1ncc(OCC(F)F)cn1 (centres unmarked) [P28, N-[1-[3-[5-(2,2-difluoroethoxy)pyrimidin-2-yl]pyrazin-2-yl]ethyl]-3-(trifluoromethyl)-5-(trifluoromethylsulfonyl)benzamide]
≥ 80%: percent control (mortality or growth inhibition) at 200 ppm [1] | percent control (mortality or growth inhibition) at 200 ppm [6] | percent control (mortality, anti-feedant effect or growth inhibition) at 200 ppm [2] | percent control (mortality or growth inhibition) at 200 ppm [3] | percent control (mortality, anti-feedant effect or growth inhibition) at 200 ppm [5] | mortality at 500 ppm [7]

CC(NC(=O)c1cc(C(F)(F)F)cc(S(=O)(=O)C(F)(F)F)c1)c1nccnc1-c1ncc(OC(F)F)cn1 (centres unmarked) [P19, N-[1-[3-[5-(difluoromethoxy)pyrimidin-2-yl]pyrazin-2-yl]ethyl]-3-(trifluoromethyl)-5-(trifluoromethylsulfonyl)benzamide]
≥ 80%: percent control (mortality or growth inhibition) at 200 ppm [1] | percent control (mortality, anti-feedant effect or growth inhibition) at 200 ppm [2] | percent control (mortality or growth inhibition) at 200 ppm [3] | percent control (mortality, anti-feedant effect or growth inhibition) at 200 ppm [5] | mortality at 500 ppm [7]

CC(NC(=O)c1cc(C2CC2C(F)(F)F)cc(C(F)(F)F)c1)c1nccnc1-c1ncc(OCC(F)F)cn1 (centres unmarked) [P38, N-[1-[3-[5-(2,2-difluoroethoxy)pyrimidin-2-yl]pyrazin-2-yl]ethyl]-3-(trifluoromethyl)-5-[2-(trifluoromethyl)cyclopropyl]benza-mide]
≥ 80%: percent control (mortality or growth inhibition) at 200 ppm [1] | percent control (mortality, anti-feedant effect or growth inhibition) at 200 ppm [2] | percent control (mortality or growth inhibition) at 200 ppm [3] | percent control (mortality, anti-feedant effect or growth inhibition) at 200 ppm [5] | mortality at 500 ppm [7]

CC(NC(=O)c1cc(C2CC2)cc(C(F)(F)F)c1)c1nccnc1-c1ncc(OC(F)F)cn1 (centres unmarked) [P41, 3-cyclopropyl-N-[1-[3-[5-(difluoromethoxy)pyrimidin-2-yl]pyrazin-2-yl]ethyl]-5-(trifluoromethyl)benzamide]
≥ 80%: percent control (mortality or growth inhibition) at 200 ppm [1] | percent control (mortality, anti-feedant effect or growth inhibition) at 200 ppm [2] | percent control (mortality or growth inhibition) at 200 ppm [3] | percent control (mortality, anti-feedant effect or growth inhibition) at 200 ppm [5] | mortality at 500 ppm [7]

CC(NC(=O)c1cc(C(F)(F)F)cc(C2(C#N)CC2)c1)c1nccnc1-c1ccc(OCC(F)(F)F)cn1 (centres unmarked) [P24, 3-(1-cyanocyclopropyl)-N-[1-[3-[5-(2,2,2-trifluoroethoxy)-2-pyridyl]pyrazin-2-yl]ethyl]-5-(trifluoromethyl)benzamide]
≥ 80%: percent control (mortality or growth inhibition) at 200 ppm [1] | percent control (mortality, anti-feedant effect or growth inhibition) at 200 ppm [2] | percent control (mortality or growth inhibition) at 200 ppm [3] | percent control (mortality, anti-feedant effect or growth inhibition) at 200 ppm [5] | mortality at 500 ppm [7]
